ChEMBL document CHEMBL1201862, “PubChem BioAssay data set” (2004)
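Each compound was tested at five concentrations against cells in 96-well plates for 48 hours. Here, GI50 denotes the concentration required for 50% inhibition of growth.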 Calls of active or inactive are those of the source. No stated cut-off is given here; in the data, active = GI50 up to about 1.1 µM and inactive = higher.

What was measured:
Assay in all cases: DTP human tumour cell line panel, 48 h
[1] = tested on: A498
[2] = tested on: DU-145
[3] = tested on: HCC 2998
[4] = tested on: HCT-15
[5] = tested on: KM12
[6] = tested on: LOX IMVI
[7] = tested on: MCF7
[8] = tested on: MDA-MB-231
[9] = tested on: MDA-MB-435
[10] = tested on: NCI-H226
[11] = tested on: PC-3
[12] = tested on: SK-MEL-5
[13] = tested on: SN12C
[14] = tested on: SNB-75
[15] = tested on: SW-620
[16] = tested on: TK-10
[17] = tested on: UACC-257
[18] = tested on: HT-29
[19] = tested on: Malme-3M
[20] = tested on: NCI-H522

Nc1nc(Cl)c2nnn(CC3CCC(CO)C3)c2n1 (centres undefined)
GI50 [1]: > 100 µM (inactive)
GI50 [2]: > 100 µM (inactive)
GI50 [3]: > 100 µM (inactive)
GI50 [4]: > 100 µM
GI50 [5]: > 100 µM (inactive)
GI50 [6]: > 100 µM (inactive)
GI50 [7]: > 100 µM (inactive)
GI50 [8]: > 100 µM (inactive)
GI50 [9]: > 100 µM (inactive)
GI50 [10]: > 100 µM (inactive)
GI50 [11]: > 100 µM (inactive)
GI50 [12]: > 100 µM (inactive)
GI50 [13]: > 100 µM (inactive)
GI50 [14]: > 100 µM (inactive)
GI50 [15]: > 100 µM (inactive)
GI50 [16]: > 100 µM (inactive)
GI50 [17]: > 100 µM (inactive)

Cc1nc2ccc([N+](=O)[O-])cc2c(=O)n1C(=S)Nc1cccc(Cl)c1
GI50 [1]: 9.4 µM (inactive)
GI50 [2]: 28.4 µM (inactive)
GI50 [3]: 9.02 µM (inactive)
GI50 [4]: 12.9 µM
GI50 [18]: 17.7 µM (inactive)
GI50 [5]: 12.9 µM (inactive)
GI50 [6]: 12.9 µM (inactive)
GI50 [7]: 17.2 µM (inactive)
GI50 [8]: 15.5 µM (inactive)
GI50 [9]: 17.7 µM (inactive)
GI50 [19]: 21.1 µM (inactive)
GI50 [10]: 14.9 µM (inactive)
GI50 [11]: 15.2 µM (inactive)
GI50 [12]: 14.1 µM (inactive)
GI50 [13]: 20 µM (inactive)
GI50 [14]: 16.5 µM (inactive)
GI50 [15]: 22 µM (inactive)
GI50 [16]: 23.8 µM (inactive)
GI50 [17]: 17.3 µM (inactive)

CCOC(=O)CSc1nc(-c2ccc(Cl)cc2)c(C#N)c(=O)[nH]1
GI50 [1]: > 100 µM (inactive)
GI50 [2]: > 100 µM (inactive)
GI50 [3]: 76 µM (inactive)
GI50 [4]: > 100 µM
GI50 [18]: > 100 µM (inactive)
GI50 [5]: > 100 µM (inactive)
GI50 [7]: 99.5 µM (inactive)
GI50 [8]: 50.6 µM (inactive)
GI50 [9]: > 100 µM (inactive)
GI50 [10]: 82.4 µM (inactive)
GI50 [20]: 58.5 µM (inactive)
GI50 [11]: > 100 µM (inactive)
GI50 [12]: > 100 µM (inactive)
GI50 [13]: > 100 µM (inactive)
GI50 [14]: 63.7 µM (inactive)
GI50 [15]: > 100 µM (inactive)
GI50 [16]: > 100 µM (inactive)
GI50 [17]: > 100 µM (inactive)

S=c1oc(CCCCCCCCc2nn(CNc3ccccc3)c(=S)o2)nn1CNc1ccccc1
GI50 [1]: > 100 µM (inactive)
GI50 [2]: > 100 µM (inactive)
GI50 [3]: > 100 µM (inactive)
GI50 [4]: > 100 µM
GI50 [18]: > 100 µM (inactive)
GI50 [5]: > 100 µM (inactive)
GI50 [7]: > 100 µM (inactive)
GI50 [8]: > 100 µM (inactive)
GI50 [9]: > 100 µM (inactive)
GI50 [10]: > 100 µM (inactive)
GI50 [20]: > 100 µM (inactive)
GI50 [11]: > 100 µM (inactive)
GI50 [12]: > 100 µM (inactive)
GI50 [13]: > 100 µM (inactive)
GI50 [14]: > 100 µM (inactive)
GI50 [15]: > 100 µM (inactive)
GI50 [16]: > 100 µM (inactive)
GI50 [17]: > 100 µM (inactive)

c1ccc(Nc2nnc(Cn3ccc4ccccc43)s2)cc1
GI50 [1]: > 100 µM (inactive)
GI50 [2]: 92.9 µM (inactive)
GI50 [3]: > 100 µM (inactive)
GI50 [4]: 38.5 µM
GI50 [18]: 57 µM (inactive)
GI50 [5]: 34.5 µM (inactive)
GI50 [6]: 56 µM (inactive)
GI50 [7]: 40.3 µM (inactive)
GI50 [8]: 38.3 µM (inactive)
GI50 [9]: 83.2 µM (inactive)
GI50 [10]: 58.3 µM (inactive)
GI50 [20]: 51.8 µM (inactive)
GI50 [11]: 19.2 µM (inactive)
GI50 [12]: 57.4 µM (inactive)
GI50 [13]: > 100 µM (inactive)
GI50 [14]: 20.9 µM (inactive)
GI50 [15]: 87.3 µM (inactive)
GI50 [16]: 76.6 µM (inactive)
GI50 [17]: > 100 µM (inactive)

CCOC(=O)C1C/C(C)=C(/C)SCCCS1 (centres undefined)
GI50 [1]: > 100 µM (inactive)
GI50 [2]: > 100 µM (inactive)
GI50 [3]: > 100 µM (inactive)
GI50 [4]: > 100 µM
GI50 [18]: > 100 µM (inactive)
GI50 [5]: > 100 µM (inactive)
GI50 [6]: 68.5 µM (inactive)
GI50 [7]: > 100 µM (inactive)
GI50 [8]: > 100 µM (inactive)
GI50 [9]: > 100 µM (inactive)
GI50 [19]: > 100 µM (inactive)
GI50 [10]: > 100 µM (inactive)
GI50 [20]: 13.5 µM (inactive)
GI50 [11]: > 100 µM (inactive)
GI50 [12]: 45.5 µM (inactive)
GI50 [13]: > 100 µM (inactive)
GI50 [15]: > 100 µM (inactive)
GI50 [16]: > 100 µM (inactive)
GI50 [17]: > 100 µM (inactive)

O=C(OCC1CCCN2CCCCC12)c1ccncc1 (centres undefined)
GI50 [1]: > 100 µM (inactive)
GI50 [2]: > 100 µM (inactive)
GI50 [3]: > 100 µM (inactive)
GI50 [4]: > 100 µM
GI50 [18]: > 100 µM (inactive)
GI50 [5]: > 100 µM (inactive)
GI50 [6]: > 100 µM (inactive)
GI50 [7]: > 100 µM (inactive)
GI50 [8]: > 100 µM (inactive)
GI50 [9]: > 100 µM (inactive)
GI50 [19]: > 100 µM (inactive)
GI50 [10]: > 100 µM (inactive)
GI50 [11]: > 100 µM (inactive)
GI50 [12]: > 100 µM (inactive)
GI50 [13]: > 100 µM (inactive)
GI50 [14]: > 100 µM (inactive)
GI50 [15]: > 100 µM (inactive)
GI50 [16]: > 100 µM (inactive)
GI50 [17]: > 100 µM (inactive)

Clc1ccc2c(c1)N(CCCN1CCCC13CCCCC3)c1ccccc1S2
GI50 [1]: 16 µM (inactive)
GI50 [2]: 16.6 µM (inactive)
GI50 [3]: 3.08 µM (inactive)
GI50 [4]: 17.1 µM
GI50 [18]: 4.33 µM (inactive)
GI50 [5]: 13.8 µM (inactive)
GI50 [6]: 12.4 µM (inactive)
GI50 [7]: 14.3 µM (inactive)
GI50 [8]: 8.85 µM (inactive)
GI50 [9]: 14.2 µM (inactive)
GI50 [19]: 14.2 µM (inactive)
GI50 [10]: 35.3 µM (inactive)
GI50 [20]: 10.6 µM (inactive)
GI50 [11]: 8.04 µM (inactive)
GI50 [12]: > 41.9 µM (inactive)
GI50 [13]: 13.4 µM (inactive)
GI50 [15]: 14.9 µM (inactive)
GI50 [16]: 14.5 µM (inactive)
GI50 [17]: 10.3 µM (inactive)

CSc1c(C#N)c(=O)[nH]c2[nH]nc(C)c12
GI50 [1]: > 100 µM (inactive)
GI50 [2]: > 100 µM (inactive)
GI50 [3]: > 100 µM (inactive)
GI50 [4]: > 100 µM
GI50 [18]: > 100 µM (inactive)
GI50 [5]: > 100 µM (inactive)
GI50 [6]: > 100 µM (inactive)
GI50 [7]: > 100 µM (inactive)
GI50 [8]: > 100 µM (inactive)
GI50 [9]: > 100 µM (inactive)
GI50 [19]: > 100 µM (inactive)
GI50 [10]: > 100 µM (inactive)
GI50 [11]: > 100 µM (inactive)
GI50 [12]: > 100 µM (inactive)
GI50 [13]: > 100 µM (inactive)
GI50 [14]: > 100 µM (inactive)
GI50 [15]: > 100 µM (inactive)
GI50 [16]: > 100 µM (inactive)
GI50 [17]: > 100 µM (inactive)

O=C(CCl)Nc1cc(Cl)c(Cl)cc1Cl
GI50 [1]: 5.15 µM (inactive)
GI50 [2]: 3.16 µM (inactive)
GI50 [3]: 4.84 µM (inactive)
GI50 [4]: 2.09 µM
GI50 [18]: 2 µM (inactive)
GI50 [5]: 0.307 µM (active)
GI50 [6]: 1.56 µM (inactive)
GI50 [7]: 2.07 µM (inactive)
GI50 [8]: 1.56 µM (inactive)
GI50 [9]: 1.38 µM (inactive)
GI50 [19]: 1.41 µM (inactive)
GI50 [10]: 1.01 µM (active)
GI50 [20]: 0.505 µM (active)
GI50 [11]: 1.76 µM (inactive)
GI50 [12]: 1.78 µM (inactive)
GI50 [13]: 1.52 µM (inactive)
GI50 [15]: 2.58 µM (inactive)
GI50 [16]: 1.83 µM (inactive)
GI50 [17]: 1.84 µM (inactive)

COc1ccccc1NC(=O)CC(=O)N1N=C(N2c3ccccc3Sc3ccccc32)CC1c1ccccc1 (centres undefined)
GI50 [1]: > 100 µM (inactive)
GI50 [2]: > 100 µM (inactive)
GI50 [3]: > 100 µM (inactive)
GI50 [4]: > 100 µM
GI50 [18]: > 100 µM (inactive)
GI50 [5]: > 100 µM (inactive)
GI50 [7]: > 100 µM (inactive)
GI50 [8]: > 100 µM (inactive)
GI50 [9]: > 100 µM (inactive)
GI50 [10]: > 100 µM (inactive)
GI50 [20]: > 100 µM (inactive)
GI50 [11]: > 100 µM (inactive)
GI50 [12]: > 100 µM (inactive)
GI50 [13]: > 100 µM (inactive)
GI50 [14]: > 100 µM (inactive)
GI50 [15]: > 100 µM (inactive)
GI50 [16]: > 100 µM (inactive)
GI50 [17]: > 100 µM (inactive)
